Measured values reported in ChEMBL document CHEMBL6134788, “Development of naphthalimide hydrazide derivatives as potent antibacterial agents against carbapenem-resistant A. baumannii” (RSC Med Chem, 2024).
Values after ≈ are worked out from the molar mass of the structure shown.

Legend:
Assay type in all cases: functional
Acinetobacter baumannii [1] = test: Antibacterial activity against multi-drug resistant Acinetobacter baumannii 5-109 assessed as inhibition of bacterial growth incubated for 16 to 18 hrs by CLSI protocol based method; conditions: time 16-18 hrs, read-out: MIC100
Acinetobacter baumannii [2] = test: Antibacterial activity against multi-drug resistant Acinetobacter baumannii clinical isolate 2 assessed as inhibition of bacterial growth incubated for 16 to 18 hrs by CLSI protocol based method; conditions: time 16-18 hrs, read-out: MIC100
Staphylococcus aureus = test: Antibacterial activity against Staphylococcus aureus ATCC 29213 assessed as inhibition of bacterial growth incubated for 16 to 18 hrs by CLSI protocol based method; conditions: time 16-18 hrs, read-out: MIC100
Acinetobacter baumannii [3] = test: Antibacterial activity against carbapenem-resistant Acinetobacter baumannii BAA 1605 assessed as inhibition of bacterial growth incubated for 16 to 18 hrs by CLSI protocol based method; conditions: time 16-18 hrs, read-out: MIC100
Acinetobacter baumannii [4] = test: Antibacterial activity against carbapenem-resistant Acinetobacter baumannii BAA 1605 assessed as minocycline MIC by measuring fractional inhibitory concentration incubated 24 hrs by checkerboard method relative to minocycline alone
Acinetobacter baumannii [5] = test: Antibacterial activity against carbapenem-resistant Acinetobacter baumannii BAA 1605 assessed as inhibition of bacterial growth incubated 24 hrs in presence of levofloxacin by checkerboard method
Acinetobacter baumannii [6] = test: Antibacterial activity against multi-drug resistant Acinetobacter baumannii clinical isolate 1 assessed as inhibition of bacterial growth incubated for 16 to 18 hrs by CLSI protocol based method; conditions: time 16-18 hrs, read-out: MIC100
Acinetobacter baumannii [7] = test: Antibacterial activity against multi-drug resistant Acinetobacter baumannii NR-17777 assessed as inhibition of bacterial growth incubated for 16 to 18 hrs by CLSI protocol based method; conditions: time 16-18 hrs, read-out: MIC100
Pseudomonas aeruginosa = test: Antibacterial activity against Pseudomonas aeruginosa ATCC 27853 assessed as inhibition of bacterial growth incubated for 16 to 18 hrs by CLSI protocol based method; conditions: time 16-18 hrs, read-out: MIC100
Acinetobacter baumannii [8] = test: Antibacterial activity against carbapenem-resistant Acinetobacter baumannii BAA 1605 assessed as inhibition of bacterial growth by measuring fractional inhibitory concentration incubated 24 hrs in presence of polymyxin B by checkerboard method
Acinetobacter baumannii [9] = test: Antibacterial activity against multi-drug resistant Acinetobacter baumannii clinical isolate 11 assessed as inhibition of bacterial growth incubated for 16 to 18 hrs by CLSI protocol based method; conditions: time 16-18 hrs, read-out: MIC100
Acinetobacter baumannii [10] = test: Antibacterial activity against multi-drug resistant Acinetobacter baumannii clinical isolate 7 assessed as inhibition of bacterial growth incubated for 16 to 18 hrs by CLSI protocol based method; conditions: time 16-18 hrs, read-out: MIC100
Acinetobacter baumannii [11] = test: Antibacterial activity against carbapenem-resistant Acinetobacter baumannii BAA 1605 assessed as inhibition of bacterial growth by measuring fractional inhibitory concentration incubated 24 hrs in presence of minocycline by checkerboard method
Acinetobacter baumannii [12] = test: Synergistic antibacterial activity against carbapenem-resistant Acinetobacter baumannii BAA 1605 assessed as inhibition of bacterial growth incubated 24 hrs in presence of tobramycin by checkerboard method
Acinetobacter baumannii [13] = test: Antibacterial activity against carbapenem-resistant Acinetobacter baumannii BAA 1605 assessed as inhibition of bacterial growth by measuring levofloxacin MIC incubated 24 hrs by checkerboard method
Acinetobacter baumannii [14] = test: Antibacterial activity against multi-drug resistant Acinetobacter baumannii clinical isolate 4 assessed as inhibition of bacterial growth incubated for 16 to 18 hrs by CLSI protocol based method; conditions: time 16-18 hrs, read-out: MIC100
Acinetobacter baumannii [15] = test: Antibacterial activity against carbapenem-resistant Acinetobacter baumannii BAA 1605 assessed as amikacin MIC by measuring fractional inhibitory concentration incubated 24 hrs by checkerboard method relative to amikacin alone
Acinetobacter baumannii [16] = test: Antibacterial activity against carbapenem-resistant Acinetobacter baumannii BAA 1605 assessed as inhibition of bacterial growth by measuring fractional inhibitory concentration incubated 24 hrs in presence of rifampicin by checkerboard method
Acinetobacter baumannii [17] = test: Antibacterial activity against multi-drug resistant Acinetobacter baumannii H72721 assessed as inhibition of bacterial growth incubated for 16 to 18 hrs by CLSI protocol based method; conditions: time 16-18 hrs, read-out: MIC100
Acinetobacter baumannii [18] = test: Antibacterial activity against carbapenem-resistant Acinetobacter baumannii BAA 1605 assessed as inhibition of bacterial growth incubated 24 hrs in presence of rifampicin by checkerboard method
Acinetobacter baumannii [19] = test: Antibacterial activity against multi-drug resistant Acinetobacter baumannii clinical isolate 10 assessed as inhibition of bacterial growth incubated for 16 to 18 hrs by CLSI protocol based method; conditions: time 16-18 hrs, read-out: MIC100

With `O=C(CCN1C(=O)c2cccc3cccc(c23)C1=O)NNc1ccc(Br)cc1` the MIC (Acinetobacter baumannii [1]) was 0.5 µg/mL (≈ 1.14 µM), the MIC (Acinetobacter baumannii [2]) was 0.5 µg/mL (≈ 1.14 µM) and the MIC (Staphylococcus aureus) was > 64 µg/mL. For the same compound, the MIC (Acinetobacter baumannii [3]) was 0.5 µg/mL (≈ 1.14 µM), the FIC (Acinetobacter baumannii [4]) was 1 and the MIC (Acinetobacter baumannii [5]) was 1 µg/mL. The MIC (Acinetobacter baumannii [6]) was 0.25 µg/mL (≈ 0.57 µM), the MIC (Acinetobacter baumannii [7]) was 0.5 µg/mL (≈ 1.14 µM) and the MIC (Pseudomonas aeruginosa) was > 64 µg/mL. The FIC (Acinetobacter baumannii [8]) was 0.25, the MIC (Acinetobacter baumannii [9]) was 4 µg/mL (≈ 9.13 µM) and the MIC (Acinetobacter baumannii [10]) was 0.5 µg/mL (≈ 1.14 µM). It also gave an FIC (Acinetobacter baumannii [11]) of 1, an MIC (Acinetobacter baumannii [12]) of 0.25 µg/mL and an MIC (Acinetobacter baumannii [13]) of 8 µg/mL. The MIC (Acinetobacter baumannii [14]) was 0.5 µg/mL (≈ 1.14 µM), the FIC (Acinetobacter baumannii [15]) was 0.5 and the FIC (Acinetobacter baumannii [16]) was 0.5. The MIC (Acinetobacter baumannii [17]) was 0.5 µg/mL (≈ 1.14 µM), the MIC (Acinetobacter baumannii [18]) was 0.5 µg/mL and the MIC (Acinetobacter baumannii [19]) was 0.5 µg/mL (≈ 1.14 µM).
